Tests used:
[1] = Dissociation kinetics of Mn(II) complexes, transmetalation with Zn(II) (T2 relaxation); type: physicochemical
Description: The transmetalation reaction of MnL2 and MnL3 (1.4 mM) was monitored in the presence of 10, 20, 30, and 40 mol equiv of Zn(II) ions, by measuring water proton T2 relaxation times (60 MHz) as a function of time at 25 °C and in 0.15 M NaCl, in the pH range 4.9–6.0 (4.9, 5.0, 5.2, 5.5, and 6.0). To control pH, 50 mM N-methyl-piperazine (pH 4.9–5.5) or 50 mM MES (2-(4-morpholino)ethane-sulfonic acid) buffer (pH 5.7–6.0) was used. Transmetalation of MnL2 (0.3 mM) was also investigated in the presence of 10, 20, 30, and 40 mol equiv of Cu(II) ions, by monitoring the UV–vis absorbance at 274.0 nm as a function of time at 25 °C and in 0.15 M NaCl, in the pH range 4.7–5.0 (in 75 mM 1,4-dimethyl piperazine (DMP) buffer). No oxidation of the samples was observed. The program OriginPro 9 was used for the fitting of experimental data.
The dissociation kinetics was followed through monitoring Mn(II) release by water proton T2 measurements, at pH […], in the presence of 10- to 40-fold excess of Zn(II) and through UV–vis measurements in the presence of 10- to 40-fold excess of Cu(II) at pH 4.7–5.0 (only for MnL2). The observed dissociation rate constants, kobs, increase with increasing H^+ ion concentration (Figures 4, left and S20). They remain independent of Zn(II) concentration (Figures S18 and S19), but do show dependence on Cu(II) concentration (Figure S21).
In excess of the exchanging metal ion, the reaction is of pseudo-first order, and the rate is proportional to the total MnL2 or MnL3 concentration (eq 1), where kobs is the pseudo-first-order rate constant. [drawing 4] 1 In general, different dissociation pathways can coexist, implying the participation of protons and/or the exchanging metal ion,[47] as illustrated in Figure 5.
Based on this scheme, the overall rate for either Zn(II) or Cu(II) transmetalation can be given by eq 2, where M = Zn^2+ or Cu^2+ (for clarity, charges of the complexes are omitted). [drawing 5] 2 Here, the first and second terms correspond to the spontaneous dissociation of the nonprotonated and the monoprotonated complexes, respectively, the third term describes the proton-assisted dissociation of the monoprotonated complex, and the last two terms refer to the spontaneous dissociation of the dinuclear complex and metal-assisted dissociation of the monoprotonated MnL2 or MnL3 complex. [MnL]tot describes the total concentration of Mn(II) chelates ([MnL]tot = [MnL] + [MnHL] + [ZnLMn]). Since no obvious Zn(II) dependence (for any of the two systems) was observed, only the spontaneous and proton-assisted dissociation pathways were taken into consideration. Consequently, the observed rate constants can be expressed as in eq 3 with k0 = kMnL, k1 = kMnHL·KMnHL, and k2 = ^HkMnHL·KMnHL. [drawing 6] 3 The kobs rate constants were fitted to eq 3, and the calculated parameters are listed in Table 5 for the Zn(II) exchange. During the fitting procedure, KMnHL was fixed to the value obtained from the pH-potentiometric titrations.

[2] = Cyclic voltammetry of Mn(II) complexes in aqueous solution; type: physicochemical; conditions: aqueous 0.15 M KCl; for ΔE (peak separation): 100 mV s^–1; for Eox (oxidation peak) / Ered (reduction peak): 100 mV s^–1 scan rate; for Eox (oxidation peak) / Ered (reduction peak) / E1/2: vs Ag/AgCl
Description: All solvents (VWR International, Penta) and chemicals were purchased from commercial sources (Acros Organics, Merck) and used as received. 2-(Chloromethyl)pyridine hydrochloride and 2-(chloromethyl)benzimidazole were prepared according to the previously described procedures.[31],[32] The parent ligand 15-pyN3O2 was synthesized as previously described in the literature.[28],[33] Mass spectra were collected using an LCQ Fleet mass spectrometer (Thermo Scientific, Waltham, MA) equipped with an electrospray ion source and a three-dimensional (3D) ion-trap detector in the positive/negative mode (see SI, Figures S1 and S2). ^1H and ^13C NMR spectra were obtained using a 400-MR NMR spectrometer (Varian, Palo, Alto, CA) at 25 °C. The multiplicity of the signals is indicated as follows: s, singlet; d, doublet; t, triplet; m, multiplet; and bs, broad singlet. Deuterated solvent chloroform-d (99.9% of D) was purchased from Sigma-Aldrich and used as received. The atom numbering schemes used for the interpretation of NMR data are shown in Scheme 2. The carbon and hydrogen atoms were assigned according to the spectra obtained from the two-dimensional correlation experiments ^1H–^1H gs-COSY, ^1H–^13C gs-HMQC, and ^1H–^13C gs-HMBC (see SI, Figures S3–S10). Cyclic voltammetry was performed on a CHI600C electrochemical analyzer (CH Instruments, Inc., Austin, TX). IR spectra were measured on a Jasco FT/IR-4700 spectrometer (Jasco, Easton, MD) using the ATR technique on a diamond plate in the spectral range 4000–400 cm^–1 (see SI Figure S11). A conventional electrochemical three-electrode-type cell with a glassy carbon working electrode, a platinum wire auxiliary electrode, and either Ag/Ag^+ reference electrode (0.01 M AgNO3 in 0.1 M tetrabutylammonium perchlorate (TBAP) in CH3CN) or Ag/AgCl reference electrode filled with 3 M KCl solution was used during the measurements with the scan rate of 100 mV s^–1. The measurements were performed in an argon atmosphere either in 0.1 M TBAP solution in CH3CN or in 0.15 M aqueous solution of KCl as a supporting electrolyte with a scan rate of 100 mV s^–1 and at 1.5 mM concentration of the complexes. The internal ferrocene/ferrocenium standard (E1/2 = 0.459 V vs Ag/Ag^+ electrode, ΔE = 77 mV) was employed for measurements in CH3CN.
Thus, we carried out CV experiments on an aqueous solution of the Mn(II) complexes in 0.15 M KCl. […] The cyclic voltammogram of MnL3 is similar, showing an oxidation peak at Eox = +1004 mV and a reduction peak at Ered = 782 mV (E1/2 = 893 mV vs Ag/AgCl, ΔE = 222 mV) (Figure S23). The large separation between the oxidation and reduction peaks (ΔE) is characteristic of a quasi-reversible system. The irreversibility of the Mn(II)/Mn(III) redox process is quite common due to the lack of ligand-field stabilization for the high-spin d^5 configuration of Mn(II), with a consequent large inner-sphere contribution to electron transfer.[57] Even larger separation between the oxidation and reduction peaks was observed when the complexes were measured in acetonitrile (Figures S24 and S25 in SI).

[3] = Zn(II) transmetalation, 25 °C, 0.15 M NaCl, pH 4.9–6.0

## O.[Mn+2].c1ccc(CN2CCOCCOCCNCc3cccc(n3)C2)nc1 [MnL2]
[1]; Mn(II) complex, t1/2 = ln 2/kobs calculated for pH 7.4, Zn(II)
  dissociation half-life t1/2: 10.4 min
[1]; [3]
  k0 (spontaneous dissociation of the nonprotonated complex): (1.1 ± 0.3) × 10^–3 s^–1
  k2 (proton-assisted dissociation of the monoprotonated complex): (4.5 ± 0.8) × 10^7 M^–2 s^–1
[2]
  ΔE (peak separation): 144 mV
  Eox (oxidation peak): +994 mV
  Ered (reduction peak): +850 mV
  E1/2: 922 mV

## O.[Mn+2].c1cc2nc(c1)CN(Cc1nc3ccccc3[nH]1)CCOCCOCCNC2 [MnL3]
[1]; [3]
  k0 (spontaneous dissociation of the nonprotonated complex): (1.9 ± 0.3) × 10^–3 s^–1
[2]
  ΔE (peak separation): 222 mV
  Eox (oxidation peak): +1004 mV
  Ered (reduction peak): 782 mV
  E1/2: 893 mV
